Laboratory results published in patent US7714146B2, “Azulene-oxindole compounds as multiple-kinase inhibitors and useful as anticancer agents” (Industrial Technology Research Institute, priority 2006, dated 2010).

Key:
Type in all cases: biochemical
[1] = biological target: T1, human FLT-3 (Arg571-Ser993) (Homo sapiens, UniProt P36888); test: FLT-3 kinase assay (HTScan kit, DELFIA); details: for inhibition at 1 µM: compound at 1 μM, read-out: FLT-3 1 μM, % of inhibition relative to control; for inhibition at 0.1 µM: compound at 0.1 μM, read-out: FLT-3 0.1 μM, % of inhibition relative to control; for IC50: read-out: FLT-3 kinase inhibition (IC50)
T1 construct: human FLT-3 (Arg571-Ser993); GST (N); purchased Cell Signaling Technology; host or cells: baculovirus expression system
T1 sequence (P36888 571-993): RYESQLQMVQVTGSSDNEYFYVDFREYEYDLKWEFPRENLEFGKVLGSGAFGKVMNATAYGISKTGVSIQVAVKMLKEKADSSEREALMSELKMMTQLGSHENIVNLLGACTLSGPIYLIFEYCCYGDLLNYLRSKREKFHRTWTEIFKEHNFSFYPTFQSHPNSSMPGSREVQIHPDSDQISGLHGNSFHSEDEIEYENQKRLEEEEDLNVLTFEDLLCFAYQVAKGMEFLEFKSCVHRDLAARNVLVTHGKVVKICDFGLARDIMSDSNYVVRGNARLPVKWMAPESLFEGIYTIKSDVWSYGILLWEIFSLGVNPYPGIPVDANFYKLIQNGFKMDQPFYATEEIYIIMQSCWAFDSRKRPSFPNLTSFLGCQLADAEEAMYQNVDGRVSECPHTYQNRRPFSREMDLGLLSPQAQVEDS
Description: (§1) Compounds 1-100 were treated for their efficacy in inhibiting activities of FLT-3, c-KIT, KDR/Flk-1, PDGFR-beta, EGFR, and PKC kinases by biochemical DELFIA (Dissociation Enhanced Lanthanide FIA) assays according to the procedure described below. The assays were conducted by, Division of Cell Engineering, Biomedical Engineering Research Laboratories, Industrial Technology Research Institute, Bldg. 53, 195, sec. 4, Chung Hsing Rd. Chutung, Hsinchu, Taiwan 310, R.O.C.
(§2) The FLT-3 assay was conducted following the protocol described in Protocol for HTScan® FLT-3 Kinase Assay Kit (Cell Signaling Technology®). The assay was conducted under the following conditions: FLT-3 source: The GST-kinase fusion protein was produced using a baculovirus expression system with a construct expressing human FLT-3 (Arg571-Ser993) (GenBank accession No. NM_004119) with an amino-terminal GST tag, substrate: 1.5 μM Gastrin Precursor Biotinylated Peptide (with Tyr87 as phosphorylation site), vehicle: 1% DMSO, pre-incubation time/temperature: 5 minutes at room temperature, incubation time/temperature: 30 minutes at room temperature, incubation buffer: 60 mM HEPES pH 7.5, 5 mM MgCl2, 5 mM MnCl2, 3 μM Na3VO4, 1.25 mM DTT, 20 μM ATP, and quantitative method: DELFIA® Assay.

[2] = biological target: T2, human EGFR (His672-Ala1210) (Homo sapiens, UniProt P00533); test: EGFR kinase assay (HTScan kit, DELFIA); details: compound at 0.1 μM; read-out: EGFR 0.1 μM, % of inhibition relative to control
T2 construct: human EGFR (His672-Ala1210); GST (N); purchased Cell Signaling Technology; host or cells: baculovirus expression system
Description: as §1
as §2, with “EGFR” for “FLT-3”, “EGFR (His672-Ala1210)” for “FLT-3 (Arg571-Ser993)”, “Accession” for “accession”, “NM_005228)” for “NM_004119)”, “This biotinylated peptide contains the residues surrounding Tyr-66 of PTP1B,” for “Gastrin Precursor Biotinylated Peptide (with Tyr87 as phosphorylation site),”

[3] = biological target: T3, human c-KIT (Thr544-Val976) (Homo sapiens, UniProt P10721); test: c-KIT kinase assay (HTScan kit, DELFIA); details: for inhibition at 0.1 µM: compound at 0.1 μM, read-out: c-KIT 0.1 μM, % of inhibition relative to control; for inhibition at 1 µM: compound at 1 μM, read-out: c-KIT 1 μM, % of inhibition relative to control; for IC50: read-out: c-KIT kinase inhibition (IC50)
T3 construct: human c-KIT (Thr544-Val976); GST (N); purchased Cell Signaling Technology; host or cells: baculovirus expression system
Description: as §1
as §2, with “c-KIT” for “FLT-3”, “GST-c-KIT” for “GST-kinase”, “c-KIT (Thr544-Val976)” for “FLT-3 (Arg571-Ser993) (GenBank accession No. NM_004119)”, “This biotinylated peptide contains the residues surrounding Tyr-996 of KDR,” for “Gastrin Precursor Biotinylated Peptide (with Tyr87 as phosphorylation site),”

[4] = biological target: T4, human VEGFR-2 (Val789-Val1356) (Homo sapiens, UniProt P35968); test: KDR kinase assay (HTScan VEGFR-2 kit, DELFIA); details: for inhibition at 1 µM: compound at 1 μM, read-out: KDR 1 μM, % of inhibition relative to control; for inhibition at 0.1 µM: compound at 0.1 μM, read-out: KDR 0.1 μM, % of inhibition relative to control
T4 construct: human VEGFR-2 (Val789-Val1356); GST (N); purchased Cell Signaling Technology; host or cells: baculovirus expression system
Description: as §1
The KDR assay was conducted following the protocol described in Protocol for HTScan® VEGFR-2 Kinase Assay Kit (Cell Signaling Technology®). The assay was conducted under the following conditions: KDR source: The GST-Kinase fusion protein was produced using a baculovirus expression system with a construct expressing human VEGFR-2 (Val789-Val1356) (GenBank Accession No. NM_002253) with an amino-terminal GST tag, substrate: 1.5 μM Gastrin Precursor Biotinylated Peptide (with Tyr87 as phosphorylation site), vehicle: 1% DMSO, pre-incubation time/temperature: 5 minutes at room temperature, incubation time/temperature: 30 minutes at room temperature, incubation buffer: 60 mM HEPES pH 7.5, 5 mM MgCl2, 5 mM MnCl2, 3 μM Na3VO4, 1.25 mM DTT, 20 μM ATP, and quantitative method: DELFIA® Assay.

T4 sequence (P35968 789-1356): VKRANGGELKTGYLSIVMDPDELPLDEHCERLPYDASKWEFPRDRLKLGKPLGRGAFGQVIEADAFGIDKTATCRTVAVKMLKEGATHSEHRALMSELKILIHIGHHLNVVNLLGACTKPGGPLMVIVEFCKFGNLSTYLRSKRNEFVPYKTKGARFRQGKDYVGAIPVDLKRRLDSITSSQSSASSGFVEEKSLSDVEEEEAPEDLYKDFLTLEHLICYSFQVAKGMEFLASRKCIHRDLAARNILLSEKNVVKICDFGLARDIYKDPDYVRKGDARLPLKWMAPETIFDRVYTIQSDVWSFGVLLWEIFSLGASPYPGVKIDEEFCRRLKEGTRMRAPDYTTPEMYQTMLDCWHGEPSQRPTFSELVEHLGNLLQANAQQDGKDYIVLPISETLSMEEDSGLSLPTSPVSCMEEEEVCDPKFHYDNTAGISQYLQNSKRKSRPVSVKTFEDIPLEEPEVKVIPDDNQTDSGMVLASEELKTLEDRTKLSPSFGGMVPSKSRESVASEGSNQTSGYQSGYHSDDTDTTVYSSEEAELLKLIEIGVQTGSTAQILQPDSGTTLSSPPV
T3 sequence (P10721 544-976): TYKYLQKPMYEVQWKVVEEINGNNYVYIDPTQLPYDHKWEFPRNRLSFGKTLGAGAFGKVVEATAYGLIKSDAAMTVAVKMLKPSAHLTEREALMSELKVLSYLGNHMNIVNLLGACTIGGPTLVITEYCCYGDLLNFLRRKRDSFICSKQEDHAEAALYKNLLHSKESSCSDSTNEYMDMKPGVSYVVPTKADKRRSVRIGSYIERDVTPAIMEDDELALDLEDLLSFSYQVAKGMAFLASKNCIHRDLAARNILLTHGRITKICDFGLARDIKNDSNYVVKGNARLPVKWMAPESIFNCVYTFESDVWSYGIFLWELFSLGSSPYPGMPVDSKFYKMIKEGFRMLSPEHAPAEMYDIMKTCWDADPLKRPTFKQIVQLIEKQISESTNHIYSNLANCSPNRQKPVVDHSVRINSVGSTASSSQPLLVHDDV
T2 sequence (P00533 672-1210): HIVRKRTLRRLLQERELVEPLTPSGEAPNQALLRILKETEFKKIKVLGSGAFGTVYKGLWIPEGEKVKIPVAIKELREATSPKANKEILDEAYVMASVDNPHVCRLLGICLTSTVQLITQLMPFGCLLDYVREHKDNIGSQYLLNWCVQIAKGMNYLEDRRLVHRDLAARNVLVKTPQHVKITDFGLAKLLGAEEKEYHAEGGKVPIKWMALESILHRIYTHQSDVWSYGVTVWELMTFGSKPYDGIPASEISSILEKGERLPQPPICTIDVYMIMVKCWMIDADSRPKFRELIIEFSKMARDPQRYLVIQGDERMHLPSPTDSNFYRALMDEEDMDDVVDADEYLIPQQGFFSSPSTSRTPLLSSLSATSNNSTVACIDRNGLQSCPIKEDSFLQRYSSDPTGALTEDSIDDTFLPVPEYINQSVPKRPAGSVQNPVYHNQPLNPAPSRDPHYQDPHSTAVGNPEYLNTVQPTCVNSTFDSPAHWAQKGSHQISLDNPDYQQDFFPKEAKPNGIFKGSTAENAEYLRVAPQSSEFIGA

Structure (SMILES)	inhibition at 1 µM [1] [%]	inhibition at 0.1 µM [2] [%]	inhibition at 0.1 µM [3] [%]	inhibition at 1 µM [3] [%]	inhibition at 0.1 µM [1] [%]	inhibition at 1 µM [4] [%]	inhibition at 0.1 µM [4] [%]	IC50 [3] [nM]	IC50 [1] [nM]	IC50 ([4]; read-out: KDR kinase inhibition (IC50)) [nM]
COc1ccc2c(c1)NC(=O)/C2=C\c1ccc2cccccc1-2 [Compound 31, 3-Azulen-1-ylmethylene-6-methoxy-1,3-dihydro-indol-2-one]	14.9	0.2								
O=C1Nc2cc(Br)ccc2/C1=C\c1ccc2cccccc1-2 [Compound 28, 3-Azulen-1-ylmethylene-6-bromo-1,3-dihydro-indol-2-one]	24.5		6.8	6.8	1.9	22.4				
O=C1Nc2cc(Br)ccc2/C1=C/c1ccc2cccccc1-2 [Compound 29, 3-Azulen-1-ylmethylene-6-bromo-1,3-dihydro-indol-2-one]	53.3		46.1	46.1		48.2	18.5			
COc1ccc2c(c1)NC(=O)/C2=C/c1ccc2cccccc1-2 [Compound 30, 3-Azulen-1-ylmethylene-6-methoxy-1,3-dihydro-indol-2-one]	34.6		26.9	26.9	7.3	15.6	9.5			
Cc1cc(/C=C2/C(=O)N(Cc3ccccc3)c3ccccc32)c2c(C)ccc(C(C)C)cc1-2 [Compound 13, 1-Benzyl-3-(5-isopropyl-3,8-dimethyl-azulen-1-ylmethylene)-1,3-dihydro-indol-2-one]	0.2		66.2	66.2	4.4	83.9	54.1			
Cc1cc(C=C2C(=O)Nc3ncccc32)c2ccccc(OCCCN(C)C)c1-2 [Compound 104, 3-(((3aZ,5Z,7E)-8-(3-(dimethylamino)propoxy)-1-methylazulen-3-yl)methylene)-1H-pyrrolo[2,3-b]pyridin-2(3H)-one]	44.8		42.5	57.4	14.6	88	30.1			
CCN(CC)CCCOc1ccccc2c(C=C3C(=O)Nc4ccc(F)cc43)cc(C)c1-2 [Compound 90, 3-[4-(3-Diethylamino-propoxy)-3-methyl-azulen-1-ylmethylene]-5-fluoro-1,3-dihydro-indol-2-one]	85.5		83.2	83.2	33.9	32.8		77.9	10.1	

Second part, the compound after the results:

inhibition at 1 µM [1] [%]	inhibition at 0.1 µM [2] [%]	inhibition at 0.1 µM [3] [%]	inhibition at 1 µM [3] [%]	inhibition at 0.1 µM [1] [%]	inhibition at 1 µM [4] [%]	inhibition at 0.1 µM [4] [%]	IC50 [3] [nM]	IC50 [1] [nM]	IC50 ([4]; read-out: KDR kinase inhibition (IC50)) [nM]	Structure (SMILES)
96.8		34.4	34.4	74.3	63.8	38.6	> 1000	25.3	500	Cc1cc(/C=C2/C(=O)Nc3ccc(F)cc32)c2ccccc(OCCCN(C)C)c1-2 [Compound 68, 3-[4-(3-Dimethylamino-propoxy)-3-methyl-azulen-1-ylmethylene]-5-fluoro-1,3-dihydro-indol-2-one]
53		34.8	34.8	12.6	34.2	35.4				O=C1Nc2ccc(F)cc2/C1=C\c1cc2cccccc-2c1F [Compound 56, 5-Fluoro-3-(1-fluoro-azulen-2-ylmethylene)-1,3-dihydro-indol-2-one]
74.9		45.6	45.6	68.3	35.1	21.9				O=C1Nc2ccc(F)cc2/C1=C/c1c2cccccc-2oc1=O [Compound 62, 5-Fluoro-3-(2-oxo-2H-cyclohepta[b]furan-3-ylmethylene)-1,3-dihydro-indol-2-one]
19.7		29.6	29.6	17.6	32	30.2				CCc1cc(C=C2C(=O)Nc3ccc(F)cc32)c2cccccc1-2 [Compound 80, 3-(3-Ethyl-azulen-1-ylmethylene)-5-fluoro-1,3-dihydro-indol-2-one]
43.5		48.7	48.7	19.1	36.6	33				CC(C)c1cc(C=C2C(=O)Nc3ccc(F)cc32)c2cccccc1-2 [Compound 81, 5-Fluoro-3-(3-isopropyl-azulen-1-ylmethylene)-1,3-dihydro-indol-2-one]
52.8		28.3	28.3	52.6	40.3	55.6				O=C1Nc2ccc(F)cc2/C1=C/c1cc(F)c2cccccc1-2 [Compound 60, 5-Fluoro-3-(3-fluoro-azulen-1-ylmethylene)-1,3-dihydro-indol-2-one]
44.2		20.2	20.2	14.1	9.1	12.6				O=C1Nc2ccc(F)cc2/C1=C\c1ccccc2cccc1-2 [Compound 52, 3-Azulen-4-ylmethylene-5-fluoro-1,3-dihydro-indol-2-one]
43.9		18	18	16.5	23.8	12.1				CN(C)Cc1cc(/C=C2/C(=O)Nc3ccccc32)c2cccccc1-2 [Compound 58, 3-(3-Dimethylaminomethyl-azulen-1-ylmethylene)-1,3-dihydro-indol-2-one]
